Experimental findings from ChEMBL document CHEMBL3045621, “Synthesis and Structure-activity Relationships of Herbicidal Thiophene Sulfonylurea Compounds” (J Pestic Sci, 1997) are described below.

In data set [1] the test system is Oryza sativa. Description: Toxicity in two leaf stage of Oryza sativa var. Nihonbare (rice) assessed as dose required to selectivity to Oryza sativa. It counts as organism-based. The following applies: in vivo.
Data set [2] concerns Echinochloa oryzicola. Briefly: Herbicidal activity against Echinochloa oryzicola assessed as dose required to cause sufficient herbicidal activity. It counts as functional.
Data set [3] concerns Schoenoplectiella juncoides. Description: Herbicidal activity against Schoenoplectiella juncoides assessed as dose required to cause sufficient herbicidal activity after 5 to 7 days. In kind it is functional.
Data set [4] relates to Sagittaria pygmaea. Briefly: Herbicidal activity against Sagittaria pygmaea assessed as dose required to cause sufficient herbicidal activity after 5 to 7 days. It counts as functional.

Consider `COc1cc(OC)nc(NC(=O)NS(=O)(=O)c2sccc2C[N+](=O)[O-])n1`, for which the MED in data set [1] is given as 0.625 g/acre.

Turning to `COc1nc(NC(=O)NS(=O)(=O)c2c(COCCF)cnn2C)nc(OC)n1`, the MED amounted to 1.25 g/acre in data set [1], 0.625 g/acre in data set [2] and 0.313 g/acre in data set [3].

`COc1cc(OC)nc(NC(=O)NS(=O)(=O)c2sccc2COCC(F)(F)Cl)n1`: the MED is 1.25 g/acre in data set [1], 5 g/acre in data set [2] and 2.5 g/acre in data set [3].

Consider `COc1cc(OC)nc(NC(=O)NS(=O)(=O)c2ccsc2COCCF)n1`, for which the MED is recorded as 0.313 g/acre in data set [1] and 0.0781 g/acre in data set [3].

For the compound `COc1cc(OC)nc(NC(=O)NS(=O)(=O)c2cscc2COCCF)n1`, the MED in data set [1] amounted to 0.625 g/acre; in data set [4] it was 0.0781 g/acre; in data set [3], 0.156 g/acre.

As to `Cc1cc(C)nc(NC(=O)NS(=O)(=O)c2sccc2COCCF)n1`, the MED in data set [1] was 0.156 g/acre.

For `COc1nc(NC(=O)NS(=O)(=O)c2sccc2COCCF)nc(OC)n1`, the MED is 0.313 g/acre in data set [1] and 5 g/acre in data set [2].

For the compound `COCCOCc1ccsc1S(=O)(=O)NC(=O)Nc1nc(OC)cc(OC)n1`, the values for the MED in data set [1], in data set [4] and in data set [3] were 0.156 g/acre, 0.313 g/acre and 0.313 g/acre, respectively.

For `COc1cc(OC)nc(NC(=O)NS(=O)(=O)c2sccc2COCCCl)n1`, the MED in data set [1] is 0.625 g/acre; in data set [4], 0.156 g/acre; in data set [3] it was 0.156 g/acre.

As for `COc1cc(OC)nc(NC(=O)NS(=O)(=O)c2sccc2COCCCCl)n1`, the MED in data set [1] is 0.313 g/acre; in data set [2] it was 1.25 g/acre.

As to `COc1cc(OC)nc(NC(=O)NS(=O)(=O)c2sccc2COC(C)C(F)(F)F)n1` (stereo not drawn), the MED in data set [1] was 1.25 g/acre; in data set [2], 5 g/acre; in data set [3] it was 2.5 g/acre.

Consider `COc1cc(OC)nc(NC(=O)NS(=O)(=O)c2sccc2COC(CF)CF)n1`, for which the MED in data set [1] worked out at 0.625 g/acre; in data set [4] it was 0.313 g/acre; in data set [2] it was 1.25 g/acre.

On to `COc1cc(OC)nc(NC(=O)NS(=O)(=O)c2sccc2CN(C)C)n1`, for which the figures for the MED in data set [4], in data set [2] and in data set [3] were 10 g/acre, 20 g/acre and 10 g/acre, respectively.

For the compound `CCN(CC)Cc1ccsc1S(=O)(=O)NC(=O)Nc1nc(OC)cc(OC)n1`, the MED in data set [1] was 0.625 g/acre; in data set [2] it was 5 g/acre.

Take `COc1cc(OC)nc(NC(=O)NS(=O)(=O)c2sccc2Cn2cccn2)n1`: the MED is recorded as 0.625 g/acre in data set [1], 5 g/acre in data set [2] and 1.25 g/acre in data set [3].

For `COCc1ccsc1S(=O)(=O)NC(=O)Nc1nc(OC)cc(OC)n1`, the MED in data set [1] was 0.0781 g/acre; in data set [4], 0.0195 g/acre; in data set [3] it was 0.0391 g/acre.

In the case of `COc1cc(OC)nc(NC(=O)NS(=O)(=O)c2sccc2CC#N)n1`, the MED amounted to 0.0391 g/acre in data set [1], 0.625 g/acre in data set [2] and 0.156 g/acre in data set [3].

Take `COc1cc(OC)nc(NC(=O)NS(=O)(=O)c2sccc2CSC)n1`: the MED was determined as 0.156 g/acre in data set [1], 0.0195 g/acre in data set [4] and 0.313 g/acre in data set [2].

As for `CNC(=O)Cc1ccsc1S(=O)(=O)NC(=O)Nc1nc(OC)cc(OC)n1`, the MED is 1.25 g/acre in data set [1], 0.313 g/acre in data set [4] and 0.625 g/acre in data set [3].

For the compound `COc1cc(OC)nc(NC(=O)NS(=O)(=O)c2sccc2COCCO)n1`, the figures for the MED in data set [1], in data set [2] and in data set [3] were 0.313 g/acre, 0.625 g/acre and 0.625 g/acre, respectively.

In the case of `CCOC(=O)COCc1ccsc1S(=O)(=O)NC(=O)Nc1nc(OC)cc(OC)n1`, the MED in data set [1] is recorded as 1.25 g/acre.
